Assays:
TYRO3 = biological target: T1, TYRO3 (Homo sapiens, UniProt Q06418); test: LanthaScreen Eu kinase binding assay, TYRO3; settings: Tracer 236
T1 construct: purchased Life Technologies
T1 sequence (Q06418 41-890): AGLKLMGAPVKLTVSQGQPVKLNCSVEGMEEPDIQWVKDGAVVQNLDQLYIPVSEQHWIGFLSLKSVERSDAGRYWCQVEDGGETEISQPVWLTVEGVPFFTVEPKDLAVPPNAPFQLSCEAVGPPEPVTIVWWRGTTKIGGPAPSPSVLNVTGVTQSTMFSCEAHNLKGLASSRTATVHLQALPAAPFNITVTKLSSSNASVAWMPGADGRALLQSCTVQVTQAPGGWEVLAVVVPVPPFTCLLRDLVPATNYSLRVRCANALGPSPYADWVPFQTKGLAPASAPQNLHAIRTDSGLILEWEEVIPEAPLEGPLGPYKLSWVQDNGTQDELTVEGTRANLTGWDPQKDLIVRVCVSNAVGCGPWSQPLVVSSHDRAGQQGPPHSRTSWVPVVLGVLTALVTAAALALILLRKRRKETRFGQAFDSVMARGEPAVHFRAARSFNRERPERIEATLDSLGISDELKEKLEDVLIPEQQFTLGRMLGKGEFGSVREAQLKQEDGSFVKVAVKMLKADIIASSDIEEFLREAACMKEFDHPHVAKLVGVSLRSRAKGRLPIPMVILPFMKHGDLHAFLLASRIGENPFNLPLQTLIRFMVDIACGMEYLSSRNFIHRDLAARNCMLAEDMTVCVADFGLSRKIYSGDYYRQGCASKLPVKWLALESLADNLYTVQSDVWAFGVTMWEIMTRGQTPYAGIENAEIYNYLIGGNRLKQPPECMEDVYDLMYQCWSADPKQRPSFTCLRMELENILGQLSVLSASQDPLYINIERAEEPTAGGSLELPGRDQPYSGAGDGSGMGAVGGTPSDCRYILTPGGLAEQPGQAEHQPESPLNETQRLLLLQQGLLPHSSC

Met = biological target: T2, Met (Homo sapiens, UniProt P08581); test: LanthaScreen Eu kinase binding assay, Met; settings: Tracer 236, read-out: cMet kinase binding activity (Kd)
T2 construct: purchased Life Technologies
T2 sequence (P08581 25-1390): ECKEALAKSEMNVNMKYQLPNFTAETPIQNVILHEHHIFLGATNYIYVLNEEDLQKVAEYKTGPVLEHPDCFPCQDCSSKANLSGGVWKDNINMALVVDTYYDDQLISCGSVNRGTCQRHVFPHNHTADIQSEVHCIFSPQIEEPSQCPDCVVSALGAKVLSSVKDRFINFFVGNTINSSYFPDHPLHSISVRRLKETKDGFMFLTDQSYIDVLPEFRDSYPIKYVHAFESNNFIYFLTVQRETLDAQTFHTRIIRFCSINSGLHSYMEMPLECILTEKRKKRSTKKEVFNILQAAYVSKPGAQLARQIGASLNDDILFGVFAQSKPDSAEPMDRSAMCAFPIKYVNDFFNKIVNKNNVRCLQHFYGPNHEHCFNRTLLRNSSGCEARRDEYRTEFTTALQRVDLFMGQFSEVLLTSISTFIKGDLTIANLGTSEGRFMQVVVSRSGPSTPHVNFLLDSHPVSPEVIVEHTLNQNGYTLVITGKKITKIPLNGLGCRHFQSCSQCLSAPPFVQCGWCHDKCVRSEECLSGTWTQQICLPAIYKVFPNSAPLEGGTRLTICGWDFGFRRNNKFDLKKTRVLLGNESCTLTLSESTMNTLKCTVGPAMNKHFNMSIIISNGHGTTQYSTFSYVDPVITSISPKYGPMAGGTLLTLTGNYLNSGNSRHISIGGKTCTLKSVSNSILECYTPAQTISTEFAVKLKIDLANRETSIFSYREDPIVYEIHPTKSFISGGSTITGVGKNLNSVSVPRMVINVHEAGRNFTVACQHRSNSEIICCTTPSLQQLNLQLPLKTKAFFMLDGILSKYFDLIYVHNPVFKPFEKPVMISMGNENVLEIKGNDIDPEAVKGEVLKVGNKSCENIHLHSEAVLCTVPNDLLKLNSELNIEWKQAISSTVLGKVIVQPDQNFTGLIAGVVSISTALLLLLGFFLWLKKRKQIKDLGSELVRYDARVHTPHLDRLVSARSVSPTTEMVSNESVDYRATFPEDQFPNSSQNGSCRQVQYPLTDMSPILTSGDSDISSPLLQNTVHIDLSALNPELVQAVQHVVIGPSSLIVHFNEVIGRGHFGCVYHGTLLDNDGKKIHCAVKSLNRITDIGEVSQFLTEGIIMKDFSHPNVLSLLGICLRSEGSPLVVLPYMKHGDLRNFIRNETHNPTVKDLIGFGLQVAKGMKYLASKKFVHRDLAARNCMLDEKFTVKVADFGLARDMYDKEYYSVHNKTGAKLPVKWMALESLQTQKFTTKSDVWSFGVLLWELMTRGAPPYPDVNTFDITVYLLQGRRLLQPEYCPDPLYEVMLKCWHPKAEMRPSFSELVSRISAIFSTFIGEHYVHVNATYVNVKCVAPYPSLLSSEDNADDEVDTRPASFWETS

[1] = test system: Axl phosphorylation in transiently transfected HEK293T cells; test: Cellular Axl phosphorylation assay; format: cell-based; settings: Homo sapiens, HEK-293T; HEK293T cells transfected with Axl, 1 hour compound treatment, Phospho-Axl vs Total-Axl
Source text: Cell AXL Inhibition Assay Principle
The assay is based on the measurement of the relative amounts of Total-Axl and Phosphorylated-Axl in whole cell lysates of transiently transfected HEK293T cells. This assay is based on application of the Mesoscale western blot and subsequent electro-chemiluminescence detection. Overexpression of Axl-RTK (Receptor tyrosine kinase) by transfection leads to an increase in Axl-trans-autophosphorylation events. Upon compound treatment, the correlation of the measured values of Phosphorylated-Axl and Total Axl indicate the potential of the tested compound to inhibit Axl-phosphorylation at the given compound concentration.
Cell AXL Inhibition Assay Protocol
HEK293T cells (2.5×10^4/well) were plated in a 96 well plate and cells were transfected with pcDNA_DEST_40 Axl or pcDNA_DEST_40 by Superfact reagent (Qiagen. Co. Ltd.). After overnight, the transfection reagent of each well was removed from cells and replaced by fresh prewarmed medium. On the following day, cells were treated with the respective test compound which was diluted by the same method, as in the Axl binding assay using DMSO, for 1 hour
After incubation with the test compounds, cells in the well of the plate were lysed using Tris lysis buffer. The lysate was transferred to two plates (total-Axl and phosphor-Axl) Mesoscale high bind plates and incubated for two hours at room temperature. Afterwards the lysates were removed from the plates and the plates were blocked using Blocking buffer. Subsequently Total-Axl antibody (H-124, Santa Cruz) was transferred to one Mesoscale high bind plate, and Phospho-Axl antibody (AF2228, R&D) to the other plate. After 1 h incubation, Sulpho-Tag antibody (goat anti-rabbit, Mesoscale) was added and again incubated for 1 hour. For the measurement, 2×MSD read buffer was added to each well and the plates were analyzed with a Mesoscale Sector Imager 2400. IC50 (half the maximal inhibitory concentration) was determined relative to between the vehicle (DMSO) control group and minimum control group as transfection of the control vector (pcDNA_DEST_40).
The results after this assay are shown in table 3 for selected compounds.

Row | SMILES | Kd (TYRO3) [nM] | Kd (Met) [nM] | IC50 [1] [nM]
1 | CCOc1cnn(-c2cncs2)c1C(=O)Nc1ccc(Oc2ccnc3cc(OC)c(OC)cc23)cn1 [Compound 16] | 100 to 1000 | 100 to 1000 | 100 to 1000
2 | CCOc1cn(-c2cnccc2CO)nc1C(=O)Nc1ccc(Oc2ccnc3cc(OC)c(OC)cc23)cc1F [Compound 209] | < 100 | < 100 | < 100
3 | CCOc1cn(-c2ccc(F)c(CO)c2)nc1C(=O)Nc1ccc(Oc2ccnc3cc(OC)c(OC)cc23)cn1 [Compound 128] | < 100 | < 100 | < 100
4 | CCOc1cn(-c2cncnc2C2CC2)nc1C(=O)Nc1ccc(Oc2ccnc3cc(OC)c(OC)cc23)cn1 [Compound 167] | < 100 | < 100 | < 100
5 | CCOc1cn(-c2cncn2C)nc1C(=O)Nc1ccc(Oc2ccnc3cc(OC)c(OC)cc23)cn1 [Compound 11] | 100 to 1000 | 100 to 1000 | < 100
6 | CCOc1cn(-c2cnc(C)cn2)nc1C(=O)Nc1ccc(Oc2ccnc3cc(OC)c(OC)cc23)cn1 [Compound 160] | ≥ 1000 | < 100 | < 100
7 | CCOc1cn(-c2nccnc2C(C)(C)O)nc1C(=O)Nc1ccc(Oc2ccnc3cc(OC)c(OC)cc23)cn1 [Compound 200] | < 100 | < 100 | < 100
8 | CCOc1cn(-c2cnccc2C(C)(C)O)nc1C(=O)Nc1ccc(Oc2ccnc3cc(OC)c(OC)cc23)cn1 [Compound 184] | < 100 | < 100 | < 100
9 | CCOc1cn(-c2cnccc2C)nc1C(=O)Nc1ccc(Oc2ccnc3cc(OC)c(OC)cc23)cc1F [Compound 151] | < 100 | < 100 | < 100
10 | CCOc1cn(-c2c(C)ccnc2C)nc1C(=O)Nc1ccc(Oc2ccnc3cc(OC)c(OC)cc23)c(F)c1 [Compound 188] | < 100 | < 100 | < 100
11 | CCOc1cn(-c2ccc(OC(F)(F)F)cc2Cl)nc1C(=O)Nc1ccc(Oc2ccnc3cc(OC)c(OC)cc23)c(F)c1 [Compound 189] | < 100 | < 100 | < 100
12 | CCOc1cn(-c2ccc(C(F)(F)F)cc2F)nc1C(=O)Nc1ccc(Oc2ccnc3cc(OC)c(OC)cc23)cn1 [Compound 114] | ≥ 1000 | < 100 | < 100
13 | CCOc1cn(-c2cnc(N)nc2)nc1C(=O)Nc1ccc(Oc2ccnc3cc(OC)c(OC)cc23)cn1 [Compound 10] | < 100 | < 100 | < 100
14 | CCOc1cn(-c2ccc(Cl)cc2C(F)(F)F)nc1C(=O)Nc1ccc(Oc2ccnc3cc(OC)c(OC)cc23)cn1 [Compound 101] | 100 to 1000 | < 100 | < 100
15 | CCOc1cn(-c2nccnc2Cl)nc1C(=O)Nc1ccc(Oc2ccnc3cc(OC)c(OC)cc23)cn1 [Compound 177] | < 100 | < 100 | < 100
16 | CCOc1cn(-c2ccc(OC(F)(F)F)cc2Cl)nc1C(=O)Nc1ccc(Oc2ccnc3cc(OC)c(OC)cc23)cn1 [Compound 115] | ≥ 1000 | < 100 | < 100
17 | COc1cc2nccc(Oc3ccc(NC(=O)c4nn(-c5cccnc5)cc4OCC(F)(F)F)nc3)c2cc1OC [Compound 185] | < 100 | < 100 | < 100
18 | CCOc1cn(-c2cnc(N)nc2)nc1C(=O)Nc1ccc(Oc2ccnc3cc(OC)c(OC)cc23)c(F)c1 [Compound 141] | < 100 | < 100 | < 100
19 | CCOc1cn(-c2ccc(F)cc2C)nc1C(=O)Nc1ccc(Oc2ccnc3cc(OC)c(OC)cc23)nn1 [Compound 97] | ≥ 1000 | ≥ 1000 | < 100

Row | SMILES | Kd (TYRO3) [nM] | Kd (Met) [nM] | IC50 [1] [nM]
20 | CCOc1cn(-c2ccc(C(F)(F)F)cc2C)nc1C(=O)Nc1ccc(Oc2ccnc3cc(OC)c(OC)cc23)cn1 [Compound 99] | 100 to 1000 | ≥ 1000 | < 100
21 | CCOc1cn(C2CCCN(C)C2)nc1C(=O)Nc1ccc(Oc2ccnc3cc(OC)c(OC)cc23)cc1F (stereo not drawn) [Compound 211] | 100 to 1000 | 100 to 1000 | < 100
22 | CCOc1cn(-c2ccc(C)cc2F)nc1C(=O)Nc1ccc(Oc2ccnc3cc(OC)c(OC)cc23)cn1 [Compound 100] | 100 to 1000 | 100 to 1000 | < 100
23 | CCOc1cn(-c2nccnc2C(F)(F)F)nc1C(=O)Nc1ccc(Oc2ccnc3cc(OC)c(OC)cc23)cn1 [Compound 162] | 100 to 1000 | < 100 | < 100
24 | COc1cc2nccc(Oc3ccc(NC(=O)c4nn(-c5ccc(OC(F)(F)F)cc5Cl)cc4OCC(F)(F)F)nc3)c2cc1OC [Compound 186] | 100 to 1000 | 100 to 1000 | < 100
25 | CCOc1cn(-c2ccc(F)cc2C(C)C)nc1C(=O)Nc1ccc(Oc2ccnc3cc(OC)c(OC)cc23)cn1 [Compound 125] | < 100 | < 100 | < 100
26 | CCOc1cn(-c2ccc(N)nc2)nc1C(=O)Nc1ccc(Oc2ccnc3cc(OC)c(OC)cc23)cn1 [Compound 6] | < 100 | 100 to 1000 | < 100
27 | CCOc1cnn(-c2ccc(Cl)c(CN(C)C)c2)c1C(=O)Nc1ccc(Oc2ccnc3cc(OC)c(OC)cc23)cn1 [Compound 130] | 100 to 1000 | < 100 | < 100
28 | CCOc1cn(-c2ccc(C(C)C)cc2)nc1C(=O)Nc1ccc(Oc2ccnc3cc(OC)c(OC)cc23)cn1 [Compound 116] | ≥ 1000 | 100 to 1000 | < 100
29 | CCOc1cn(-c2ccc(C(F)(F)F)cc2C(F)(F)F)nc1C(=O)Nc1ccc(Oc2ccnc3cc(OC)c(OC)cc23)cn1 [Compound 105] | 100 to 1000 | < 100 | < 100
30 | CCOc1cn(-c2ccc(OC(F)(F)F)cc2F)nc1C(=O)Nc1ccc(Oc2ccnc3cc(OC)c(OC)cc23)cn1 [Compound 120] | ≥ 1000 | 100 to 1000 | < 100
31 | CCOc1cn(-c2ccc(OC(F)(F)F)cc2C)nc1C(=O)Nc1ccc(Oc2ccnc3cc(OC)c(OC)cc23)cn1 [Compound 113] | 100 to 1000 | 100 to 1000 | < 100
32 | CCOc1cn(-c2cnccc2CO)nc1C(=O)Nc1ccc(Oc2ccnc3cc(OC)c(OC)cc23)cn1 [Compound 179] | < 100 | < 100 | < 100
33 | CCOc1cn(-c2cnccc2C(F)(F)F)nc1C(=O)Nc1ccc(Oc2ccnc3cc(OC)c(OC)cc23)cn1 [Compound 170] | < 100 | < 100 | < 100
34 | CCOc1cn(-c2cnccc2C(C)(O)CO)nc1C(=O)Nc1ccc(Oc2ccnc3cc(OC)c(OC)cc23)cn1 (stereo not drawn) [Compound 205] | < 100 | < 100 | < 100
35 | CCOc1cn(-c2ccc(F)cc2C(F)(F)F)nc1C(=O)Nc1ccc(Oc2ccnc3cc(OC)c(OC)cc23)cn1 [Compound 104] | < 100 | < 100 | < 100
36 | CCOc1cn(-c2ccnc(O)c2)nc1C(=O)Nc1ccc(Oc2ccnc3cc(OC)c(OC)cc23)cn1 [Compound 7] | ≥ 1000 | < 100 | ≥ 1000
37 | CCOc1cn(-c2nc[nH]n2)nc1C(=O)Nc1ccc(Oc2ccnc3cc(OC)c(OC)cc23)cn1 [Compound 168] | < 100 | < 100 | < 100

From patent US10934274B2, “Quinoline derivatives as TAM RTK inhibitors” (Qurient Co., Ltd., priority 2015, dated 2021)
